Reference: ChEMBL document CHEMBL1255464, “Ethambutol optimal clinical dose and susceptibility breakpoint identification by use of a novel pharmacokinetic-pharmacodynamic model of disseminated intracellular Mycobacterium avium” (Antimicrob Agents Chemother, 2010)
≈ marks a conversion by molar mass, not a printed value.

Columns and labels:
Mycobacterium avium [1] = experiment: Antimycobacterial activity against Mycobacterium avium ATCC 700898 infected in human THP1 cells assessed as extracellular bacterial killing; format: functional; conditions: ATCC 700898, THP-1
Mycobacterium avium [2] = experiment: Antimycobacterial activity against Mycobacterium avium ATCC 700898 infected in human THP1 cells; format: functional, THP-1
Mycobacterium avium [3] = experiment: Antimycobacterial activity against Mycobacterium avium ATCC 700898 infected in human THP1 cells assessed as extracellular bacterial killing after 7 days; format: functional, organism-based; conditions: ATCC 700898, THP-1, 168 h
Mycobacterium avium [4] = experiment: Antimycobacterial activity against Mycobacterium avium ATCC 700898 infected in human THP1 cells assessed as intracellular bacterial killing after 7 days; format: functional, organism-based; conditions: ATCC 700898, THP-1, 168 h
THP-1 = experiment: Cytotoxicity against human THP1 cells; format: cell-based
Mycobacterium avium [5] = experiment: Antimycobacterial activity against Mycobacterium avium ATCC 700898 infected in human THP1 cells assessed as intracellular bacterial killing; format: functional; conditions: ATCC 700898, THP-1

## CC[C@@H](CO)NCCN[C@@H](CC)CO [ETHAMBUTOL]
Mycobacterium avium [1]
  Emax: 5.54 log10 CFU/ml
Mycobacterium avium [2]
  MIC: 8 µg/mL (≈ 39.2 µM)
Mycobacterium avium [3]
  EC50: 5.38 µg/mL (≈ 26.3 µM)
Mycobacterium avium [4]
  EC50: 7.93 µg/mL (≈ 38.8 µM)
THP-1
  Activity: Non-toxic
Mycobacterium avium [5]
  Emax: 0.67 log10 CFU/ml
